{"source": "patent US20150126464A1", "about": "“THERAPEUTIC DRUG AND THERAPEUTIC METHOD FOR NEUROLOGICAL DISEASES INCLUDING ALZHEIMER'S DISEASE ASSOCIATED WITH 1,25D3-MARRS” (priority 2013, published 2015)", "key": {"5XFAD mice": {"system": "5XFAD mice", "test": "Novel object recognition test in 5XFAD mice (Alzheimer's disease model)", "type": "in vivo, mouse", "details": "i.p. once a day for 20 days, diosgenin 10 μmol/kg, memantine hydrochloride 200 μmol/kg/day, 30 min training-test interval", "text": "Transgenic mice (5XFAD) as an animal model of AD were obtained from the Jackson Laboratory (Bar Harbor, Me., USA). The 5XFAD mice overexpress human APP695 cDNA having Swedish mutation (K670N and M671L), Florida mutation (I716V) and London mutation (V717I) and human PS1 cDNA (M146L and L286V) under the transcriptional control of the neuron-specific mouse Thy-1 promoter (Oakley, H. et al., J Neurosci, 26, 10129-10140, 2006). They were maintained by crossing hemizygous transgenic mice with B6/SJL F1 breeders.\nTo investigate the effect of diosgenin on 5XFAD, hemizygous 5XFAD mice (female, 6 to 8 months old) and non-transgenic littermate wild-type mice (female, 6 to 8 months old) were used. These mice were obtained by crossing hemizygous 5XFAD mice and B6/SJL F1 mice. All mice were housed with free access to food and water and were kept in a controlled environment (22±2° C., 50±5% humidity, 12-h light/dark cycle starting at 7:00 am).\nDiosgenin was dissolved in dimethyl sulfoxide (DMSO) at 10 times the final concentration to give a stock solution. The stock solution was diluted in physiological saline to the final concentration immediately before treatment. The diosgenin solution was intraperitoneally administered to 5XFAD mice once a day (10 μmol/kg=4.14 mg/kg) for 20 days. On the last day of administration (Day 20), each mouse was housed in a separate open-field box made of polyvinyl chloride (33 cm×[…]; height: 26.5 cm) and habituated to the environment for 10 min. […]\nFor each mouse of Example 1, Comparative Examples 1 and 2, and Reference Example 1, the path during the 10-minute habituation was tracked using a digital camera system. The distance each mouse traveled during the 10 minutes was analyzed as locomotion activity with EthoVision 3.0 (Noldus, Wageningen, The Netherlands). […] In the present invention, the ratio (%) of the exploration time for the novel object to the total exploration time was calculated as an exploration preferential index. […]"}, "1,25D3-MARRS": {"target": "T1, 1,25D3-MARRS (Rattus norvegicus, UniProt P11598)", "T1 construct": "endogenous in cells; host or cells: primary cultured rat cortical neurons (SD, E17)", "T1 sequence (P11598 25-505)": "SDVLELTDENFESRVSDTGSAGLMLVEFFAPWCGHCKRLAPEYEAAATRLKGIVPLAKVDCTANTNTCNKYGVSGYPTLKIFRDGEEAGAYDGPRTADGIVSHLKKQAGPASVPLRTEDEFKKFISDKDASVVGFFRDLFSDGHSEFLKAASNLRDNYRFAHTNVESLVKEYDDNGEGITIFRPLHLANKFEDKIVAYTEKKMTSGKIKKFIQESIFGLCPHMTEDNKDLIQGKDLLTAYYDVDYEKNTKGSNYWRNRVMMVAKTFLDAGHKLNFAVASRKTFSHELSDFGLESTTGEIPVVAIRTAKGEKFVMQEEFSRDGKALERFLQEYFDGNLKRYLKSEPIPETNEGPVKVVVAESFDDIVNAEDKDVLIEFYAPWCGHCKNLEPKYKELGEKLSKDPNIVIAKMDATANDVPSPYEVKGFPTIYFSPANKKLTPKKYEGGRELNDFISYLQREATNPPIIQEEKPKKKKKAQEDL", "test": "Detection of luminescence resulting from 1,25D3-MARRS binding (cell surface-binding DHVD3)", "details": "diosgenin 0.1 μM or 10 μM added with DHVD3 0.1 μM, 10 minutes", "text": "Embryos were removed from pregnant Sprague-Dawley rats (Japan SLC, Shizuoka, Japan) at 17 days of gestation. The cortices were dissected, and the dura mater was removed.\nPrimary cultured cortical neurons (SD, E17) were harvested into a 96-well white plate at a density of 0.5×10^5 cells/well. […] Horse radish peroxidase-conjugated goat anti-mouse IgG (1:2000) was used as a secondary antibody. The chemiluminescence of the antigen-antibody complex was detected using a GENios multi-plate reader (Tecan, Mannedorf, Zurich, Switzerland)."}}, "data": [{"smiles": "C[C@@H]1CC[C@@]2(OC1)O[C@H]1C[C@H]3[C@@H]4CC=C5C[C@@H](O)CC[C@]5(C)[C@H]4CC[C@]3(C)[C@H]1[C@@H]2C", "note": "[diosgenin]", "values": [{"measurement": "novel object preferential index (exploration preferential index), test session", "setting": "5XFAD mice", "result": "higher than 50%"}, {"measurement": "immunochemiluminescence intensity of cell surface-bound DHVD3 (replacement of DHVD3)", "setting": "1,25D3-MARRS", "result": "remarkably decreased"}]}]}
